Among the data in patent publication US11180503B2, “[1,2,4]Triazolo[4,3-A]pyrazin-6(5H)-one derivatives” (Eli Lilly and Company, priority 2017, dated 2021) are IC50 values, retold here.

Common to all, as to assay type: biochemical
The target of one test is human PDE1A (Homo sapiens (Human), UniProt P54750). Nature of the test: Ca2+-calmodulin dependent PDE enzyme assay (radiometric SPA, [3H]cAMP). The note with it: human PDE1A 0.25 nM, [3H]cAMP 47 nM; read-out: PDE 1A IC50. An excerpt:
(§1) The nucleotide sequences encoding full-length human PDE1A (NP_001003683.1) and PDE1C (NP_005011.1) are inserted into pFastBac1 (Invitrogen) vector with an N-terminal HIS tag. The nucleotide sequences encoding full-length human PDE4D (NP_006194.2) and catalytic domain (residue 641-1141) of PDE3A (NP_000912.3) are inserted into pFastBac1 (Invitrogen) vector with a C-terminal HIS tag. The nucleotide sequences encoding full-length human PDE6A (NP_000431.2) and PDE6B (AAH00249.1) are inserted into pFastBacDual (Invitrogen) vector with an N-terminal HIS tag and N-terminal Flag tag, respectively, for production of PDE6A/6B dimer. Baculovirus generation and protein expression in Sf9 cells are carried out according to the protocol of Bac-to-Bac Baculovirus Expression system (Invitrogen). The nucleotide sequence encoding full-length human PDE1B (NP_000915.1) is inserted into pIEX4 (Novagen) with a C-terminal HIS tag, and both protein productions in Sf9 cells are carried out according to the vendor's protocol (Novagen). The His tagged PDE proteins are purified using Ni-NTA agarose (Qiagen) followed by size exclusion chromatography on a SUPERDEX® 200 column (GE Healthcare) in storage buffer (20 mM Tris-HCl, pH7.5, 150 mM NaCl, 10% Glycerol). The Flag tagged PDE proteins including PDE6A/6B are purified using anti-Flag M2-agarose (Sigma), after purification through NiNTA column chromatography and eluted in storage buffer (50 mM Tris-HCl, pH7.5, 150 mM NaCl, 10% Glycerol, 0.1 mg/ml Flag peptide). All purified proteins are stored at −80° C. in small aliquots.
(§2) All 3′,5′ cyclic nucleotide phosphodiesterase (PDE) enzyme activities are measured with a radiometric enzyme assay based on SPA detection system (scintillation proximity assay). Compounds to be tested are diluted in pure dimethyl sulfoxide (DMSO) using ten point concentration response curves. Maximal compound concentration in the reaction mixture is either 10 or 100 μM. Compounds at the appropriate concentration are pre-incubated with either of the PDE enzymes for 30 minutes before the reaction is started by the addition of substrate. Reactions are allowed to proceed for 60 minutes at room temperature. Next, reactions are stopped by addition of SPA beads. Samples are read 12 hours later in a MICROBETA™ TRILUX® Counter. “IC50” refers to the concentration of the compound that produces 50% of the maximal inhibitory response possible for that compound. IC50 values are calculated by plotting the normalized data vs. log [compound] and fitting the data using a four parameter logistic equation.
(§3) PDE1B, PDE1A, and PDE1C are cloned and purified following standard protein generation procedures. The assay buffer is prepared to give a final concentration in the assay of 50 mM Tris-HCl, 50 mM MgCl2, 4 mM CaCl2, 0.1% Bovine serum albumin and 6 U/ml Calmodulin in water, at pH 7.5. The final enzyme concentration is 0.25, 0.074 and 0.0012 nM, for PDE1A, PDE1B and PDE1C respectively. The reactions are started by addition of the substrate, [^3H]cAMP, to give a final concentration of 47 nM.

The target in a further test is human PDE1B (Homo sapiens (Human), UniProt Q01064). The description is as above. The note with it: human PDE1B 0.074 nM, [3H]cAMP 47 nM; read-out: PDE 1B IC50.
From the text: as §1, §2, §3

The target in a further test is human PDE1C (Homo sapiens (Human), UniProt Q14123). Described as above. The conditions noted are these: human PDE1C 0.0012 nM, [3H]cAMP 47 nM; read-out: PDE 1C IC50.
From the text: as §1, §2, §3

The target of test [1] is human PDE3A (catalytic domain) (Homo sapiens (Human), UniProt Q14432). The test is described as follows: PDE enzyme assay using [3H]cAMP as substrate (radiometric SPA). The note with it: human PDE3A catalytic domain 0.008 nM, [3H]cAMP 47 nM.
From the text: as §1, §2
(§4) The following phosphodiesterase activities are measured using [^3H]cAMP as reaction substrate: human PDE3A (catalytic domain) and human PDE4D. Both enzymes are cloned and purified following standard procedures. The assay buffer is prepared to give a final concentration in the assay of 50 mM Tris-HCl, 8.3 mM MgCl2, 1.7 mM ethylenediaminetetraacetic acid (EDTA) and 0.1% Bovine serum albumin at pH 7.5. Final enzyme concentrations are 0.008 and 0.021 nM for PDE3A and PDE4D, respectively. Reactions are started by addition of the substrate, [^3H]cAMP, to give a final concentration of 47 nM.

The target in the next test is human PDE4D (Homo sapiens (Human), UniProt Q08499). The description is as above. The conditions noted are these: human PDE4D 0.021 nM, [3H]cAMP 47 nM; read-out: PDE 4D IC50.
From the text: as §1, §2, §4

A further test addresses human PDE6A/6B (Homo sapiens (Human), UniProt P16499+P35913). The test is described as follows: PDE enzyme assay using [3H]cGMP as substrate (radiometric SPA). The conditions noted are these: human PDE6A/6B dimer 5 nM, [3H]cGMP 80 nM; read-out: PDE 6AB IC50.
From the text: as §1, §2
The following phosphodiesterase activities are measured using [^3H]cGMP as reaction substrate: human PDE6A/6B. The catalytic active form of human PDE6 is a dimer composed of a α (human PDE6A) and β subunits (human PDE6B). The dimer of human PDE6A/6B is produced by the coexpression and purification strategy, using two purification steps, i.e., NiNTA and anti-FLAG Sepharose chromatography. The assay buffer is prepared to give a final concentration in the assay of 50 mM Tris-HCl, 8.3 mM MgCl2, 1.7 mM EDTA and 0.1% Bovine serum albumin at pH 7.5. The final enzyme concentration is 5 nM. The reactions are started by addition of the substrate, [^3H]cGMP, to give a final concentration of 80 nM.

By IC50 is commonly meant the point on the concentration scale where inhibition reaches its midpoint.

human PDE4D, sequence (Q08499 other isoform, or with tags, fused parts or gaps): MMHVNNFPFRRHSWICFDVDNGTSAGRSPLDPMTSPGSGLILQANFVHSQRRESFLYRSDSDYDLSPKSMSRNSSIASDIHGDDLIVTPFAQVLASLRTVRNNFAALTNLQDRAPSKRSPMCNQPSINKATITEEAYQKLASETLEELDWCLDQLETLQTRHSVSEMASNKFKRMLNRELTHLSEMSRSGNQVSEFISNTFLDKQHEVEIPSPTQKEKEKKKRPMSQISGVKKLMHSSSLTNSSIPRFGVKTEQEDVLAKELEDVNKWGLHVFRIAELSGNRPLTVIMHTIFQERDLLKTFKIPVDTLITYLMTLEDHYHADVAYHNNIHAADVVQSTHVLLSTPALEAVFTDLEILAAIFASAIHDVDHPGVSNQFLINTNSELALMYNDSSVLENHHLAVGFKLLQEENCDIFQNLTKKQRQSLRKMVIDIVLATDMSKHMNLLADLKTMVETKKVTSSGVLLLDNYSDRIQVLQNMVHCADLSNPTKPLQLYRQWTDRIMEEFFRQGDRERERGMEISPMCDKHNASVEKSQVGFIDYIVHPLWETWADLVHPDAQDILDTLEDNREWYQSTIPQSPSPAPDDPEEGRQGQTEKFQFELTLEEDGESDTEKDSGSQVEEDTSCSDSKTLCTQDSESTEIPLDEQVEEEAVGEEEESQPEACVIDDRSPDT
human PDE3A (catalytic domain), sequence (Q14432 641-1141): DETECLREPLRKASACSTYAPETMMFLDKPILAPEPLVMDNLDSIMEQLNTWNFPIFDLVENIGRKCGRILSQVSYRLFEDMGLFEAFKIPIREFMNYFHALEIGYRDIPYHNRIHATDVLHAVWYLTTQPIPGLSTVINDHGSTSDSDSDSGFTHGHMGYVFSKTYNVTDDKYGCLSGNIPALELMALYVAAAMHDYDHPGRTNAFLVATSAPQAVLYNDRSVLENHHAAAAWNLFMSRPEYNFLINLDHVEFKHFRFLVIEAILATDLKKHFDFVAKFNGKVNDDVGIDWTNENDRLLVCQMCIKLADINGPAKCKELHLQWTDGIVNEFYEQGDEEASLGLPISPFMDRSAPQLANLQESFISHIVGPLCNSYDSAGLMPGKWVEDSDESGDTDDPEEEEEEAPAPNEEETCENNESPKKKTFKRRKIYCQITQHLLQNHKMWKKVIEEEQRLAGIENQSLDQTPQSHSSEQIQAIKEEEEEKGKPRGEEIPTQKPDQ
human PDE6A/6B, sequence (P16499 whole entry, change not shown): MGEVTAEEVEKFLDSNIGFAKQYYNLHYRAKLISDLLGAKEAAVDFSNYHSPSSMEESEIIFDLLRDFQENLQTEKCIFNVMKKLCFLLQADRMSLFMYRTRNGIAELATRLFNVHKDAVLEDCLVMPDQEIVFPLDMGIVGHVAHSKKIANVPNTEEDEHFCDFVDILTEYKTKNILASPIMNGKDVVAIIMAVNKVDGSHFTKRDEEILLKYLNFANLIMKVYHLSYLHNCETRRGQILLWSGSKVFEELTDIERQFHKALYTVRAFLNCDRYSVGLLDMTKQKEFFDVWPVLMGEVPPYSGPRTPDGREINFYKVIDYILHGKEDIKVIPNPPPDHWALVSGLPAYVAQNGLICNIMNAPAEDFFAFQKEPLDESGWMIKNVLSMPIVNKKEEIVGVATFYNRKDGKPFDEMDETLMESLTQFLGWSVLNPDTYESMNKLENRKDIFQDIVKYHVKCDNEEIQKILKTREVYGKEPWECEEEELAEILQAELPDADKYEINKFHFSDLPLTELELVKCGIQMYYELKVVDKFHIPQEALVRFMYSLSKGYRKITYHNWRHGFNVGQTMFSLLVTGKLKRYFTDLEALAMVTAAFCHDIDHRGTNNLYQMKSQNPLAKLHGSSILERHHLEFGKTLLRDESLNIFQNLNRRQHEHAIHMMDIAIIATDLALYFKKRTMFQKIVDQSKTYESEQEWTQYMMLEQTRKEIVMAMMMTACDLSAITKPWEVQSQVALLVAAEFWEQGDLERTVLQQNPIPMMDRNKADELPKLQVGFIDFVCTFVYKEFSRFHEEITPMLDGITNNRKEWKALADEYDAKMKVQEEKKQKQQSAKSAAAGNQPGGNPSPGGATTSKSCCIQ
human PDE6A/6B, sequence (P35913 other isoform, or with tags, fused parts or gaps isoform P35913-2): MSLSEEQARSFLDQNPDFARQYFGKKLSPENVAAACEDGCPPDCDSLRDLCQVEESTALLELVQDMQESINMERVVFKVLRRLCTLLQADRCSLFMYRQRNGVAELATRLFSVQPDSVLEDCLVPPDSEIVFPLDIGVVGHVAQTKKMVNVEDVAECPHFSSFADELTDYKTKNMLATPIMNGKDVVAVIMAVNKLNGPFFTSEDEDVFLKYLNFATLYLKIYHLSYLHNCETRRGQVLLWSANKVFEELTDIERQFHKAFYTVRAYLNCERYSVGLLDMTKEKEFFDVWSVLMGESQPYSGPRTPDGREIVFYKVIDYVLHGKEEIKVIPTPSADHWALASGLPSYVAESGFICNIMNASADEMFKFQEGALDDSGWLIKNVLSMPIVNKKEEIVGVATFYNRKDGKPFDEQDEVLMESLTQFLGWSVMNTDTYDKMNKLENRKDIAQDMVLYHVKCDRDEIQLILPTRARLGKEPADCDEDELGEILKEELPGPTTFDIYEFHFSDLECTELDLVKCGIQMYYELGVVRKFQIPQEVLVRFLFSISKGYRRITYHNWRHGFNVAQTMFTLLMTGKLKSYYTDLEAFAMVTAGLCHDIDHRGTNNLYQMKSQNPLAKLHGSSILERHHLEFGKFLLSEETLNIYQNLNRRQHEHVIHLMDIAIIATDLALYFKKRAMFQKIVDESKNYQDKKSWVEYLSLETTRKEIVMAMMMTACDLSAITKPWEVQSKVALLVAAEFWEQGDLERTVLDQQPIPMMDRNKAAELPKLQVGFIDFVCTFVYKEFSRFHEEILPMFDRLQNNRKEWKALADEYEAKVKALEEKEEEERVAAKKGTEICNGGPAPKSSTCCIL

As for `CCCCn1c(=O)c2nnc(C3(C)CC3)n2c2ncc(C)cc21` [Example 6, 5-butyl-3-methyl-9-(1-methylcyclopropyl)pyrido[3,2-e][1,2,4]triazolo[4,3-a]pyrazin-6(5H)-one], the IC50 at human PDE1A is 11.6 ± 7.55 nM; on human PDE1B, 15.4 ± 0.0529 nM; at human PDE1C, 2.57 ± 0.544 nM; in test [1], over 100000 nM; at human PDE4D, 6010 nM; on human PDE6A/6B, 9590 nM.
